Experimental findings from US6201006A, “Aromatic amidine derivatives useful as selective thrombin inhibitors” (C & C Research Laboratories, priority 1996, dated 2001) are described below.

What is called IC50 is the concentration that gives 50% inhibition.

For one test, the target named is T1, human thrombin (Homo sapiens, UniProt P00734).
T1 construct: purchased Sigma T-6759
The experiment in a line: Inhibitory activity for thrombin (chromogenic substrate hydrolysis, 405 nm). Type of test: biochemical. The settings on record: for Selectivity (trypsin/thrombin): IC50 for trypsin divided by IC50 for thrombin; for IC50: human thrombin, 20 min, pH 8.0, N-benzoyl-Phe-Val-Arg-p-nitroanilide. In short, it runs like this:
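Thrombin: human enzyme (5 units/ml stock, 0.1% BSA) acted for 20 min on N-benzoyl-Phe-Val-Arg-p-nitroanilide in 125 mM NaCl, 50 mM Tris-HCl pH 8.0, with compounds dissolved in 50% methanol. Hydrolysis was read at 405 nm. Selectivity index was trypsin IC50 divided by thrombin IC50.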

The next test has as its system trypsin. As to the kind of experiment: Inhibitory activity for trypsin. It is filed as biochemical.
Test [1] has as its system thrombin time (TT) in rat plasma. The experiment in a line: Thrombin time (TT) in rat plasma after oral administration. It is filed as in vivo, SD male rats. The settings on record: TT after / TT before administration. As for the experimental part:
SD male rats weighing 220±20 g which had fasted overnight were used as experimental animals. Blood taken from the hearts of the experimental animals just before administration of the test compound and at 30, 60, 120 and 240 minutes after oral administration of the test compound was mixed with 0.108M sodium citrate in the ratio of 9:1. The mixtures thereby obtained were centrifuged at 15,000 rpm for 5 minutes at 4° C. to separate the plasma, which was stored at -20° C. until the TT was measured by means of the method described below.
200 μl of Owren's buffer was added to 50 μl of the plasma and 100 μl of the diluted plasma thereby obtained was injected into the vial of a coagulometer and then incubated for 2 minutes at 37° C. To each vial was added 100 μl of thrombin at a concentration of 20 U/ml, which had prewarmed at 37° C., to measure the time (TT) until clotting occurred. The ratio of the TT in rat plasma after administration of the test compound to the TT in rat plasma before administration of the test compound was calculated.

On to `CCn1c(CC[C@@H]2CCCN2C(=O)[C@H]2CCCN2C(=O)C[C@H](N)C(N)=O)cc2ccc(C(=N)N)cc21` [Compound 160, 1-ethyl-2-[2-[(S)-1-[[(R)-1-((S)-3-amino-3-carbamoylpropanoyl)pyrrolidin-2-yl]carbonyl]pyrrolidin-2-yl]ethyl]indole-6-carboxamidine], for which, on human thrombin, the “Selectivity (trypsin/thrombin)” value is listed as 25.0 and the IC50 was 15.3 nM. The compound also returned an IC50 in the test with trypsin of 382 nM. Further, the “Plasma TT ratio after administration to rat” value (“Plasma TT ratio” for short) in test [1] (50 mg/kg oral) is 2.30.
On to `CCn1c(CC[C@@H]2CCCN2C(=O)[C@H]2CCCN2C(=O)CCN)cc2ccc(C(=N)N)cc21` [Compound 155, 1-ethyl-2-[2-[(S)-1-[[(R)-1-(3-aminopropanoyl)pyrrolidin-2-yl]carbonyl]pyrrolidin-2-yl]ethyl]indole-6-carboxamidine], for which the “Selectivity (trypsin/thrombin)” value at human thrombin worked out at 24.7. In addition, the IC50 on human thrombin turned out to be 11.6 nM; in the test with trypsin, 287 nM. Moreover, the “Plasma TT ratio” value stood at 3.93 in test [1] (50 mg/kg oral) and 7.36 in test [1] (100 mg/kg oral).
As for `CCn1c(CC[C@@H]2CCCN2C(=O)[C@H]2CCCN2C(C)=O)cc2ccc(C(=N)N)cc21` [Compound 171, 1-ethyl-2-[2-[(S)-1-[((R)-1-acetyl-pyrrolidin-2-yl)carbonyl]pyrrolidin-2-yl]ethyl]indole-6-carboxamidine], at human thrombin, the “Selectivity (trypsin/thrombin)” value was found to be 35.1 and half-maximal inhibition (IC50) required 10.6 nM. Moreover, the IC50 in the test on trypsin was determined as 373 nM. In addition, the “Plasma TT ratio” value in test [1] (100 mg/kg oral) was 4.23.
As to `CCn1c(CC[C@@H]2CCCN2C(=O)[C@H]2CCCN2C(=O)C[C@H](N)C(=O)O)cc2ccc(C(=N)N)cc21` [Compound 161, 4-[(R)-2-[[(S)-2-[2-(6-amidino-1-ethylindol-2-yl)ethyl]pyrrolidinyl]carbonyl]pyrrolidinyl]-(S)-2-amino-4-oxobutanoic acid], on human thrombin, the “Selectivity (trypsin/thrombin)” value is 48.9 and the IC50 is 5.21 nM. Besides, the “Plasma TT ratio” value in test [1] (50 mg/kg oral) was found to be 7.62.
`CCOC(=O)CN1CCC[C@@H]1C(=O)N1CCC[C@H]1CCc1cc2ccc(C(=N)N)cc2n1CC` [Compound 86, ethyl 2-[(R)-2-[[(S)-2-[2-(6-amidino-1-ethylindol-2-yl)ethyl]pyrrolidinyl]carbonyl]pyrrolidinyl]acetate]: the “Selectivity (trypsin/thrombin)” value at human thrombin came out at 25.0. The same compound registered a half-inhibitory concentration (IC50) at human thrombin of 27 nM. Besides, the “Plasma TT ratio” value in test [1] (30 mg/kg oral) is recorded as 1.49; in test [1] (50 mg/kg oral) it was 4.51; in test [1] (100 mg/kg oral), 5.19.
